Assay results published in US8497376B2, “Inhibitors of c-fms kinase” (Janssen Pharmaceutica N.V., priority 2007, dated 2013).
Counter-ions that a name gives are not always drawn. Like-named read-outs stand apart in the source and are kept apart here.

Tests used:
[1] = test system: mouse bone-marrow derived macrophages; experiment: CSF-1-driven mouse bone-marrow derived macrophages assay (BrDU incorporation); format: cell-based; conditions: CSF-1-driven proliferation, 30 hrs culture
Protocol: Macrophages were derived by culturing mouse bone marrow in alpha-MEM supplemented with 10% FCS and 50 ng/ml recombinant mouse CSF-1 in bacteriologic dishes. On the sixth day, macrophages were detached from dishes, washed, and resuspended to 0.05 million cells/ml in alpha-MEM containing 10% FCS. One hundred ul of cell suspension were distributed per well into 96 well culture plates. Wells were further supplemented with the addition of 50 ul media containing 15 ng/ml CSF-1, 3 uM Indomethacin, and 3× of a dilution series of test compounds. The cells were cultured for 30 hrs at 37 degrees and 5% CO2. During the final six hours, cultures were supplemented with an additional 30 ul of media containing a 1:500 dilution of bromodeoxyuridine (BrDU). At the end of the culture period, the plates were spun at 1000 RPM for 1 minute and 130 ul of media was removed with a pipet and replaced with 150 ul of fixative solution for 1 hour@room temperature. The fixative was then dispelled from the plates and the plates allowed to air dry. Incorporation of BrDU into the fixed, dried cells was quantified using a specific ELISA.

in vivo = conditions: Lewis, rat, po
Protocol: (§1) Chronic, T-cell dependent, erosive arthritis was severe by day 20 at which time twice daily oral dosing was commenced until sacrificed on day 32 to determine if the compound of Example 15 (hereinafter, Compound A) can reverse established disease.
(§2) Compound A was formulated in 5% solutol, 5% ethanol, 90% water. The dose volume was 5 ml/kg.
Exposure: Two hours following the last dose of 3, 10 and 20 mpk, plasma levels of Compound A were 247±22, 802±35, and 1475±70 ng/ml, respectively (mean±SEM).

[2] = test system: streptococcal cell wall (SCW) model of arthritis in rats; experiment: SCW arthritis in rats (chronic phase, therapeutic dosing); format: in vivo, rat; conditions: for Number of steps taken using hind limbs in a thirty second observation period: average of three rats
From the text: Purpose: A polyarthritis occurs in female Lewis rats following i.p. administration of streptococcal cell wall (SCW) components. The model has an acute non-erosive phase (days 3-7) that is complement and neutrophil dependent and which resolves. A chronic erosive phase begins at about day ten and is dependent on the development of specific T cell immunity to SCW, and possibly to self-antigens. The SCW-induced model has been used less frequently for pharmaceutical testing than the adjuvant-induced or collagen-induced models of arthritis, but each model predicts accurately the anti-inflammatory potential of TNF-inhibitors. The chronic phase of the SCW model is macrophage dependent.
Method: Female Lewis rats (80-100 gm each) were purchased from Charles River. Streptococcal cell wall peptidoglycan-polysaccharide polymers (PG-PS 10S) were purchased from BD (Cat#210866). PG-PS 10S was vortexed for 30 seconds to thoroughly mix the material and sonicated at low energy levels (level 6) for 3 min with a probe type sonicator prior to injection. On day 0, sixty rats were anesthetized using isoflurane, and injected i.p. with 15 μg of rhamnose/gram body weight (BW) in the lower left quadrant of the abdomen. Ten rats were treated in a similar manner with sterile saline.
as §1, §2
Left and right hind ankles of each rat were measured with calipers every day for the first six days (post-injection) and then at least every two or three days for the remainder of the study. Ankles were assigned a clinical score based on erythema and swelling as follows: 1=ankle only; 2=ankle and proximal half of tarsal joint; 3=ankle and entire tarsal joint; 4=involvement of the entire paw including digits. Animal scores represented the sum of the two hind paws.
Disease reversal was accompanied by restoration of function. To assess function, three representative rats per group were videotaped for thirty seconds on days 19 and 32, and steps taken with hind limbs were counted and reported in Table 3. On day 19 following SCW, rats ambulated primarily using front paws. Hind paws were nearly immobilized.

c-fms = c-fms (Homo sapiens (Human), UniProt P07333); experiment: Autophosphorylation fluorescence polarization competition immunoassay for c-fms inhibition; format: biochemical; conditions: 10 nM c-fms, 1 mM ATP; average of three independent measurements
c-fms, sequence (P07333 20-972): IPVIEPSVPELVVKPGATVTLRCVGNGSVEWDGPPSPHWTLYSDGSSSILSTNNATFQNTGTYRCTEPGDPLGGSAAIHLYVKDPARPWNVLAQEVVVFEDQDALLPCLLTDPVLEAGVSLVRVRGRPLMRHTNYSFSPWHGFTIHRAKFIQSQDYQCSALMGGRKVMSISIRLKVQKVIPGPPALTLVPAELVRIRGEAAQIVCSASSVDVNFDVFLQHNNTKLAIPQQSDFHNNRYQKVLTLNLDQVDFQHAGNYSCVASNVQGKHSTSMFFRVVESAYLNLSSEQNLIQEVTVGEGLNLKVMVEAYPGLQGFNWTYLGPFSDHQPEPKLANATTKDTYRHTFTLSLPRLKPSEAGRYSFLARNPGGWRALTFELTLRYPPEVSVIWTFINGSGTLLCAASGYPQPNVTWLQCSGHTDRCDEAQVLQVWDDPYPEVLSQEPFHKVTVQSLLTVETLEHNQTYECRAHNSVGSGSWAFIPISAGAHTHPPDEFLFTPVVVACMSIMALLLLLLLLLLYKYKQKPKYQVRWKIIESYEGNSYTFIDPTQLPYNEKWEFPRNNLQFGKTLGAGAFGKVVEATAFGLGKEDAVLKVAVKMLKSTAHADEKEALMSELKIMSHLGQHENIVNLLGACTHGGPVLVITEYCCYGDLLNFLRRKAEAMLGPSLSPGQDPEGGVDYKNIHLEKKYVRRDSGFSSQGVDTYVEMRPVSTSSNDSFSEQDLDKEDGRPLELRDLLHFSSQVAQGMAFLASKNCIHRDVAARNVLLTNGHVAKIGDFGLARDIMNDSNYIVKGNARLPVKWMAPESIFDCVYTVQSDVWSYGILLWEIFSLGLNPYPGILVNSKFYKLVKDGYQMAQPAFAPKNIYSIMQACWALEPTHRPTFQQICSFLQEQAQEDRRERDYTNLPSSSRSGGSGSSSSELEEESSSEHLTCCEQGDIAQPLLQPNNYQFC
Protocol: The assay buffer used was 100 mM 4-(2-hydroxyethyl)piperazine1-ethanesulfonic acid (HEPES), pH 7.5, 1 mM 1,4-dithio-DL-threitol (DTT), 0.01% (v/v) Tween-20. Compounds were diluted in assay buffer containing 4% dimethylsulfoxide (DMSO) just prior to the assay. […] The kinase reaction was initiated by adding 2 μL of 5 mM ATP (Sigma) in assay buffer. The final concentrations in the assay were 10 nM c-fms, 1 mM ATP, 5 mM MgCl2, 2% DMSO. Control reactions were ran in each plate: in positive and negative control wells, assay buffer (made 4% in DMSO) was substituted for the compound; in addition, positive control wells received 1.2 μL of 50 mM ethylenediaminetetraaceticacid (EDTA). The plates were incubated at room temperature for 45 min. At the end of the incubation, the reaction was quenched with 1.2 μL of 50 mM EDTA (EDTA was not added to the positive control wells at this point; see above). Following a 5-min incubation, each well received 10 μL of a 1:1:3 mixture of anti-phosphotyrosine antibody, 10×, PTK green tracer, 10× (vortexed), FP dilution buffer, respectively (all from PanVera, cat. # P2837). The plate was covered, incubated for 30 min at room temperature and the fluorescence polarization was read on the Analyst. The instrument settings were: 485 nm excitation filter; 530 nm emission filter; Z height: middle of well; G factor: 0.93. […] The reported IC50 values are averages of three independent measurements.

Row | SMILES | IC50 (c-fms) [nM] | IC50 ([1]; Mus musculus, BMDM) [nM] | other results
1 | CC1(C)CC=C(c2nc(C3CC(C)(C)OC(C)(C)C3)ccc2NC(=O)c2nc(C#N)c[nH]2)CC1 [Example 15, 4-Cyano-1H-imidazole-2-carboxylic acid[2-(4,4-dimethyl-cyclohex-1-enyl)-6-(2,2,6,6-tetramethyl-tetrahydro-pyran-4-yl)-pyridin-3-yl]-amide] | – | 6.1 | concentration at 2 h (in vivo; 3 mg/kg): 247 ± 22 ng/mL; concentration at 2 h (in vivo; 10 mg/kg): 802 ± 35 ng/mL; concentration at 2 h (in vivo; 20 mg/kg): 1480 ± 70 ng/mL; Number of steps taken using hind limbs in a thirty second observation period ([2]; Day 19 (before treatment), 3 mg/kg group): 1.7; Number of steps taken using hind limbs in a thirty second observation period ([2]; Day 19 (before treatment), 10 mg/kg group): 1.3; Number of steps taken using hind limbs in a thirty second observation period ([2]; Day 19 (before treatment), 20 mg/kg group): 1.3; Number of steps taken using hind limbs in a thirty second observation period ([2]; Day 32, 3 mg/kg oral b.i.d.): 7.7; Number of steps taken using hind limbs in a thirty second observation period ([2]; Day 32, 10 mg/kg oral b.i.d.): 7.3; Number of steps taken using hind limbs in a thirty second observation period ([2]; Day 32, 20 mg/kg oral b.i.d.): 6; use of hind limbs (function) ([2]; day 32, rats treated with Compound A): used hind limbs in a normal fashion; paw swelling (caliper measurements of paw thickness and visual scores) ([2]; dosing p.o. b.i.d. initiated on day 20 after disease was severe, 3, 10, 20 mpk): caused a reversal of paw swelling
2 | C[C@]12CC(c3ccc(NC(=O)c4nc(C#N)c[nH]4)c(C4=CCCCC4)n3)C[C@](C)(O1)[C@H](O)[C@@H]2O (stereo partly drawn) [Example 19, 4-Cyano-1H-imidazole-2-carboxylic acid[2-cyclohex-1-enyl-6-[(3-exo)-(6-exo,7-exo-dihydroxy-1,5-dimethyl-8-oxa-bicyclo[3.2.1]oct-3-yl]-pyridin-3-yl]-amidetrifluoroacetic acid salt and 4-Cyano-1H-imidazole-2-carboxylic acid[2-cyclohex-1-enyl-6-[(3-endo)-(6-exo,7-exo-dihydroxy-1,5-dimethyl-8-oxa-bicyclo[3.2.1]oct-3-yl]-pyridin-3-yl]-amidetrifluoroacetic acid salt] | 2.9 | 27 | –
3 | CC1(C)CC=C(c2nc(C3CC(C)(C)S(=O)(=O)C(C)(C)C3)ccc2NC(=O)c2nc(C#N)c[nH]2)CC1 [Example 21, 4-Cyano-1H-imidazole-2-carboxylic acid[2-(4,4-dimethyl-cyclohex-1-enyl)-6-(2,2,6,6-tetramethyl-1,1-dioxo-hexahydro-1λ^6-thiopyran-4-yl)-pyridin-3-yl]-amide] | 8.9 | 18 | –
4 | CC1(C)CC=C(c2cc(C3=C[C@@H]4C=C[C@H](C3)O4)ccc2NC(=O)c2ncc(C#N)[nH]2)CC1 [Example 26, N-(4-(8-oxabicyclo[3.2.1]octa-2,6-dien-3-yl)-2-(4,4-dimethylcyclohex-1-enyl)phenyl)-4-cyano-1H-imidazole-2-carboxamide (A) and N-(4-(8-oxabicyclo[3.2.1]octa-3,6-dien-3-yl)-2-(4,4dimethylcyclohex-1-enyl)phenyl)-4cyano-1H-imidazole-2-carboxamide (B)] | 7.1 | – | IC50 ([1]; read-out: BMDM IC50): 59 nM
5 | C[C@@H]1C2C=C[C@@H](O2)[C@H](C)[C@@]1(O)c1ccc(NC(=O)c2nc(C#N)c[nH]2)c(C2=CCC(C)(C)CC2)c1 [Example 28] | 16 | 69 | –
6 | C[C@@H]1C2CC[C@@H](O2)[C@H](C)[C@@]1(O)c1ccc(NC(=O)c2nc(C#N)c[nH]2)c(C2=CCC(C)(C)CC2)c1 [Example 29, 4-Cyano-N-(2-(4,4dimethylcyclohex-1-enyl)-4-[(3-exo)-3-hydroxy-(2-endo,4endo-dimethyl)-1,5-dimethyl-8-oxabicyclo[3.2.1]octan-3-yl)pheny]-1H-imidazole-2-carboxamide] | 14 | 88 | –

Continued, in another order:

Row | IC50 (c-fms) [nM] | SMILES | IC50 ([1]; Mus musculus, BMDM) [nM] | other results
7 | 0.41 | CC1(C)CC=C(c2nc(C3C[C@](C)(CO)O[C@](C)(CO)C3)ccc2NC(=O)c2nc(C#N)c[nH]2)CC1 (stereo partly drawn) [Example 20, 4-Cyano-1H-imidazole-2-carboxylic acid[(4-cis)-(2-cis,6-cis-bis-hydroxymethyl-2,6-dimethyl-tetrahydro-pyran-4-yl)-2-(4,4dimethyl-cyclohex-1-enyl)-pyridin-3-yl]-amide trifluoroacetic acid salt and 4-Cyano-1H-imidazole-2-carboxylic acid[(4-trans)-(2-cis,6-cis-bis-hydroxymethyl-2,6-dimethyl-tetrahydro-pyran-4-yl)-2-(4,4-dimethyl-cyclohex-1-enyl)-pyridin-3-yl]-amide trifluoroacetic acid salt] | 6.5 | –
8 | 2 | CC1(C)CC=C(c2cc(C3CC(C)(C)S(=O)(=O)C(C)(C)C3)ccc2NC(=O)c2nc(C#N)c[nH]2)CC1 [Example 22, 4-Cyano-1H-imidazole-2-carboxylic acid[2-(4,4-dimethyl-cyclohex-1-enyl)-4-(2,2,6,6-tetramethyl-1,1-dioxo-hexahydro-1λ^6-thiopyran-4-yl)-phenyl]-amide] | 3.6 | –
9 | 0.66 | CC1(C)CC=C(c2cc([C@@]3(O)CC4C=C[C@H](C3)O4)ccc2NC(=O)c2nc(C#N)c[nH]2)CC1 [Example 27, 4-Cyano-N-(2-(4,4-dimethylcyclohex-1-enyl)-4-((3-exo)-3-hydroxy-8-oxabicyclo[3.2.1]oct-6-en-3-yl)phenyl)-1H-imidazole-2-carboxamide] | 6.9 | –
